Measured values published in patent US9096615B2, “Bridged bicyclic amino thiazine dioxide compounds as inhibitors of beta-secretase and methods of use thereof” (AMGEN INC., priority 2013, dated 2015).
pIC50: −log10 of the molar value. Where two headings read alike, the source gives them in different places.

Assays:
[1] = system: Aβ40 in conditioned medium of cells stably expressing Amyloid Precursor Protein (APP); experiment: In vitro BACE cell-based assay (HEK cell assay, Aβ40 sandwich ELISA); details: Homo sapiens, HEK293; average IC50; read-out: BACE1 cell assay IC50
Procedure, shortened: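 APP-stable cells were cultured 24 h at 37 °C, then given compound as 10-point dose-response (top 100 μM or 10 μM; 0.1% DMSO final) for 24 h. Aβ40 in conditioned medium was measured by sandwich ELISA (pAb40 capture, biotinylated 6E10 detection, Eu time-resolved fluorescence). IC50 from percent inhibition versus concentration.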

Abeta 40 = experiment: In vivo inhibition of beta-secretase: percent Abeta 40 reduction in CSF and brain; design: species or system rat; details: after 4 hrs; for inhibition in vivo at 10 mg/kg: 10 mpk
Excerpt: In Vivo Inhibition of Beta-Secretase
Several animal models, including mouse, rat, dog, and monkey, may be used to screen for inhibition of beta-secretase activity in vivo following administration of a test compound sample. Animals used in this invention can be wild type, transgenic, or gene knockout animals. For example, the Tg2576 mouse model, prepared and conducted as described in Hsiao et al., 1996, Science 274, 99-102, and other non-transgenic or gene knockout animals are useful to analyze in vivo inhibition of Amyloid beta peptide (Abeta) production in the presence of inhibitory test compounds. Generally, 2 to 18 month old Tg2576 mice, gene knockout mice or non-transgenic animals are administered test compounds formulated in vehicles, such as cyclodextran, phosphate buffers, hydroxypropyl methylcellulose or other suitable vehicles. One to twenty-four hours following the administration of compound, animals are sacrificed, and brains as well as cerebrospinal fluid (CSF) and plasma are removed for analysis of A-beta levels and drug or test compound concentrations (Dovey et al., 2001, Journal of Neurochemistry, 76, 173-181) Beginning at time 0, animals are administered by oral gavage, or other means of delivery such as intravenous injection, an inhibitory test compound of up to 100 mg/kg in a standard, conventional formulation, such as 2% hydroxypropyl methylcellulose, 1% Tween80. A separate group of animals receive 2% hydroxypropyl methylcellulose, 1% Tween80 alone, containing no test compound, and serve as a vehicle-control group. At the end of the test period, animals are sacrificed and brain tissues, plasma or cerebrospinal fluid are collected. Brains are either homogenized in 10 volumes (w/v) of 0.2% diethylamine (DEA) in 50 mM NaCl (Best et al., 2005, Journal of Pharmacology and Experimental Therapeutics, 313, 902-908), or in 10 volumes of 0.5% TritonX-100 in Tris-buffered saline (pH at about 7.6). Homogenates are centrifuged at 355,000 g, 4° C. for 30 minutes. CSF or brain supernatants are then analyzed for the presence of A-beta peptide by specific sandwich ELISA assays based on ECL (Electrochemiluminescence) technology. For example, rat Abeta40 is measured using biotinylated-4G8 (Signet) as a capture antibody and Fab40 (an in-house antibody specific to the C-terminal of Abeta40) as a detection antibody. For example, 4 hours after administration of 30 mg/kg oral dose of the test compound in 2% hydroxypropyl methylcellulose, 1% Tween80 (pH2.2) to 200 g male Sprague Dawley rats, amyloid beta peptide levels are measured for reduction by X % and Y % in cerebrospinal fluid and brain, respectively, when compared to the levels measured in the vehicle-treated or control […].
Actual vehicles used: Oral: 2% HPMC, 1% Tween80, pH 2.2
• IV: 5% EtOH, 45% Propylene glycol in 5% Dextrose
The compounds of the invention may be shown to reduce the formation and/or deposition of amyloid beta peptide in the cerebrospinal fluid (CSF) as well as in the brain of a mouse or rat at either 3 mpk, 10 mpk or 30 mpk (mpk=mg compound per kg weight of the animal) dosing concentrations after 4 hrs.

[2] = Abeta 40, rat CSF, read-out: % reduction of rat CSF levels at 10 pmk
[3] = Abeta 40, rat brain, read-out: % reduction of rat brain levels at 10 mpk

SMILES	pIC50 [1]	inhibition in vivo at 10 mg/kg (Abeta 40; [2])	inhibition in vivo at 10 mg/kg (Abeta 40; [3])	% reduction of rat CSF levels (3 mpk) (Abeta 40; Abeta 40, rat CSF, 3 mpk)	% reduction of rat brain levels (3 mpk) (Abeta 40; Abeta 40, rat brain, 3 mpk)
CC#CCOc1cnc(C(=O)Nc2ccc(F)c([C@@]3(C)N=C(N)[C@@]4(C)CC[C@@H]3S4(=O)=O)c2)cn1 [Example 82, N-(3-((1S,2R,5R)-4-amino-2,5-dimethyl-8,8-dioxido-8-thia-3-azabicyclo[3.2.1]oct-3-en-2-yl)-4-fluorophenyl)-5-(2-butyn-1-yloxy)-2-pyrazinecarboxamide]	10.15	71%	56%		
C[C@]1(c2cc(NC(=O)c3ccc(Cl)cn3)ccc2F)N=C(N)[C@@]2(CF)CC[C@@H]1S2(=O)=O [Example 77, N-(3-((1S,2R,5R)-4-amino-5-(fluoromethyl)-2-methyl-8,8-dioxido-8-thia-3-azabicyclo[3.2.1]oct-3-en-2-yl)-4-fluorophenyl)-5-chloro-2-pyridinecarboxamide]	8.52	77%	67%		
COc1cnc2c(Nc3ccc(F)c([C@@]4(C)N=C(N)[C@@]5(C)CC[C@@H]4S5(=O)=O)c3)ncc(F)c2c1 [Example 78, N-(3-((1S,2R,5R)-4-amino-2,5-dimethyl-8,8-dioxido-8-thia-3-azabicyclo[3.2.1]oct-3-en-2-yl)-4-fluorophenyl)-5-fluoro-3-methoxy-1,7-naphthyridin-8-amine]	7.92	52%	46%		
C[C@]1(c2cc(Nc3ncnc4cc(C(F)(F)F)cnc34)ccc2F)N=C(N)[C@@]2(C)CC[C@@H]1S2(=O)=O [Example 106, N-(3-((1S,2R,5R)-4-amino-2,5-dimethyl-8,8-dioxido-8-thia-3-azabicyclo[3.2.1]oct-3-en-2-yl)-4-fluorophenyl)-7-(trifluoromethyl)pyrido[3,2-d]pyrimidin-4-amine]	8.22	59%	29%		
COc1cnc2c(Nc3ccc(F)c([C@@]4(C)N=C(N)[C@@]5(CF)CC[C@@H]4S5(=O)=O)c3)ncnc2c1 [Example 97, N-(3-((1S,2R,5R)-4-amino-5-(fluoromethyl)-2-methyl-8,8-dioxido-8-thia-3-azabicyclo[3.2.1]oct-3-en-2-yl)-4-fluorophenyl)-7-methoxypyrido[3,2-d]pyrimidin-4-amine]	8.15	75%	76%		
C#CCOc1cnc(C(=O)Nc2ccc(F)c([C@@]3(C)N=C(N)[C@@]4(CF)CC[C@@H]3S4(=O)=O)c2)c(C)n1 [Example 59, N-(3-((1S,2R,5R)-4-amino-5-(fluoromethyl)-2-methyl-8,8-dioxido-8-thia-3-azabicyclo[3.2.1]oct-3-en-2-yl)-4-fluorophenyl)-3-methyl-5-(2-propyn-1-yloxy)-2-pyrazinecarboxamide]	9.00	80%	76%		
COc1cnc2c(Nc3ccc(F)c([C@@]4(C)N=C(N)[C@@]5(CF)CC[C@@H]4S5(=O)=O)c3)nccc2c1 [Example 56, N-(3-((1S,2R,5R)-4-amino-5-(fluoromethyl)-2-methyl-8,8-dioxido-8-thia-3-azabicyclo[3.2.1]oct-3-en-2-yl)-4-fluorophenyl)-3-methoxy-1,7-naphthyridin-8-amine]	7.78	69%			
COc1cnc2c(Nc3ccc(F)c([C@@]4(C)N=C(N)[C@@]5(C)CC[C@@H]4S5(=O)=O)c3)nccc2n1 [Example 80, N-(3-((1S,2R,5R)-4-amino-2,5-dimethyl-8,8-dioxido-8-thia-3-azabicyclo[3.2.1]oct-3-en-2-yl)-4-fluorophenyl)-2-methoxypyrido[3,4-b]pyrazin-5-amine]	8.22	72%	63%		
C[C@]1(c2cc(Nc3nccc4cc(C#N)cnc34)ccc2F)N=C(N)[C@@]2(CF)CC[C@@H]1S2(=O)=O [Example 100, 8-((3-((1S,2R,5R)-4-amino-5-(fluoromethyl)-2-methyl-8,8-dioxido-8-thia-3-azabicyclo[3.2.1]oct-3-en-2-yl)-4-fluorophenyl)amino)-1,7-naphthyridine-3-carbonitrile]	8.40	67%	59%		
C[C@]1(c2cc(Nc3nccc4nc(OCc5ncco5)cnc34)ccc2F)N=C(N)[C@@]2(C)CC[C@@H]1S2(=O)=O [Example 140, N-(3-((1S,2R,5R)-4-amino-2,5-dimethyl-8,8-dioxido-8-thia-3-azabicyclo[3.2.1]oct-3-en-2-yl)-4-fluorophenyl)-2-(1,3-oxazol-2-ylmethoxy)pyrido[3,4-b]pyrazin-5-amine]	9.40	41%	39%		
COc1cnc(C(=O)Nc2ccc(F)c([C@@]3(C)N=C(N)[C@@]4(CF)CC[C@@H]3S4(=O)=O)c2)c(C)c1 [Example 42, N-(3-((1S,2R,5R)-4-amino-5-(fluoromethyl)-2-methyl-8,8-dioxido-8-thia-3-azabicyclo[3.2.1]oct-3-en-2-yl)-4-fluorophenyl)-5-methoxy-3-methyl-2-pyridinecarboxamide]	7.52			21 (3 mpk) %	0 (3 mpk) %
C[C@]1(c2cc(Nc3ncnc4cc(C#N)cnc34)ccc2F)N=C(N)[C@@]2(CF)CC[C@@H]1S2(=O)=O [Example 40, 4-((3-((1S,2R,5R)-4-amino-5-(fluoromethyl)-2-methyl-8,8-dioxido-8-thia-3-azabicyclo[3.2.1]oct-3-en-2-yl)-4-fluorophenyl)amino)pyrido[3,2-d]pyrimidine-7-carbonitrile]	7.46	59%	24%		
C#CCOc1ccc(C(=O)Nc2ccc(F)c([C@@]3(C)N=C(N)[C@@]4(CF)CC[C@@H]3S4(=O)=O)c2)nc1 [Example 52, N-(3-((1S,2R,5R)-4-amino-5-(fluoromethyl)-2-methyl-8,8-dioxido-8-thia-3-azabicyclo[3.2.1]oct-3-en-2-yl)-4-fluorophenyl)-5-(2-propyn-1-yloxy)-2-pyridinecarboxamide]	8.40	67%	62%		
C[C@]1(c2cc(Nc3nccc4nc(OCc5ncco5)cnc34)ccc2F)N=C(N)[C@@]2(CF)CC[C@@H]1S2(=O)=O [Example 104, N-(3-((1S,2R,5R)-4-amino-5-(fluoromethyl)-2-methyl-8,8-dioxido-8-thia-3-azabicyclo[3.2.1]oct-3-en-2-yl)-4-fluorophenyl)-2-(1,3-oxazol-2-ylmethoxy)pyrido[3,4-b]pyrazin-5-amine]	9.05	74%	71%		
Cc1cc(OC(F)F)cnc1C(=O)Nc1ccc(F)c([C@@]2(C)N=C(N)[C@@]3(CF)CC[C@@H]2S3(=O)=O)c1 [Example 102, N-(3-((1S,2R,5R)-4-amino-5-(fluoromethyl)-2-methyl-8,8-dioxido-8-thia-3-azabicyclo[3.2.1]oct-3-en-2-yl)-4-fluorophenyl)-5-(difluoromethoxy)-3-methyl-2-pyridinecarboxamide]	8.70	67%	68%		
COc1cnc2c(Nc3ccc(F)c([C@@]4(C)N=C(N)[C@@]5(C)CC[C@@H]4S5(=O)=O)c3)ncnc2c1 [Example 132, N-(3-((1S,2R,5R)-4-amino-2,5-dimethyl-8,8-dioxido-8-thia-3-azabicyclo[3.2.1]oct-3-en-2-yl)-4-fluorophenyl)-7-methoxypyrido[3,2-d]pyrimidin-4-amine]	8.52	70%	50%		
